Experiments:
Type in all cases: cell-based
tyrosinase [1] = target: T1, tyrosinase (Mus musculus, UniProt P11344); assay: Tyrosinase activity (L-DOPA, dopachrome) in α-MSH-stimulated B16F10 melanoma cells; conditions: 200 nM α-MSH, fucosterol 5, 10, 20 μM, 48 hrs, P<0.01, FIG. 4
T1 construct: endogenous in cells; host or cells: B16F10 melanoma cells (α-MSH stimulated)
T1 sequence (P11344 19-533): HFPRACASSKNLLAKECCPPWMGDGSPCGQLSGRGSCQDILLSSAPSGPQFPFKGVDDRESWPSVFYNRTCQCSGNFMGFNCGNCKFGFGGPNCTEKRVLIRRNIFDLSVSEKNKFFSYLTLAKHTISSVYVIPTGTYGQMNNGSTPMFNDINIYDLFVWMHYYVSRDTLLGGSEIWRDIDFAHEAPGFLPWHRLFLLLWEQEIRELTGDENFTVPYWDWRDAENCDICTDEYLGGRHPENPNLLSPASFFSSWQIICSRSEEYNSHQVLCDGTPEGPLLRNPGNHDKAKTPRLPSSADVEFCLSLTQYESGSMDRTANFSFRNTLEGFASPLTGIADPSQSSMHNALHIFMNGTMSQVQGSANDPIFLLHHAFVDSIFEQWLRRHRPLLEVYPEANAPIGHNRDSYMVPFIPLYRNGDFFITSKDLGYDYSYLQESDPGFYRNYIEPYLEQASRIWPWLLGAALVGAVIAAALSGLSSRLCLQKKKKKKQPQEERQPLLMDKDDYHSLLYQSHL
Method: B16F10 melanoma cells were incubated in a DMEM medium including 10% fetal bovine serum and then added in a 6-well plate with 2.5×10^5 cell/mL (the final volume of 3 mL). After being incubated for 24 hrs, the medium was removed and fucosterol which was dissolved in the DMEM medium including 200 nM α-MSH was treated at 5, 10, and 20 μM concentrations, respectively. After 48 hrs, the incubated medium was removed from the 6-well plate and PBS including 1% Triton X-100 was added to collect the cells. The collected cells were centrifuged for 10 min and 150 μL of a supernatant was put in a 96-well plate and 50 μL of L-3,4-dihydroxyphenylalanine (L-DOPA) was added. With respect to an amount of dopachrome generated after incubated for 30 min at 37° C., absorbance was measured at 475 nm by using a microplate reader (Versa max, Sunnyvale, Calif., USA). In this case, cells without the fucosterol were set to a control group and the tyrosinase activity degree was measured in the control group and cells treated with the fucosterol. According to Equation 2 below, the tyrosinase activity compared with the control group was calculated and the result was illustrated in FIG. 4. Tyrosinase activity (%) compared with control group=Reaction absorbance of each test material/Reaction absorbance of control group×100 [Equation 2]

tyrosinase [2] = assay: Tyrosinase protein expression (western blot) in B16F10 melanoma cells; conditions: 200 nM α-MSH, fucosterol 5 and 20 μM, 24 hrs, FIG. 5
Method: B16F10 melanoma cells were incubated in a DMEM medium including 10% fetal bovine serum and then added in a 6-well plate with 2.5×10^5 cell/mL (the final volume of 3 mL). After being incubated for 24 hrs, the medium was removed and fucosterol which was dissolved in the DMEM medium including 200 nM α-MSH was treated at 5 and 20 μM of concentrations, respectively. The cells after 24 hrs were lysed with a NP40 buffer solution including proteinase inhibitor cocktail and the protein amount extracted from the cells was quantified by using a Bio-Rad protein assay dye (Bradford) reagent. The quantified protein was boiled for 5 min and isolated by electrophoresis with 10% SDS-PAGE to transfer the isolated proteins to a nitrocellular membrane. A primary antibody of tyrosinase was diluted in 2.5% bovine serum albumin at a ratio of 1:1000 and reacted with the protein transferred to the nitrocellular membrane for 20 hrs at room temperature. The primary antibody was reacted and the nitrocellular membrane was washed by using tris-buffer saline tween 20 (TBST) three times for 10 min. […] As the measured result, the protein expression of tyrosinase was verified and the loading amount of the protein was constant by α-tubulin.

[3] = test system: TRP-1 (tyrosinase-related protein 1); assay: TRP-1 protein expression (western blot) in B16F10 melanoma cells; conditions: 200 nM α-MSH, fucosterol 5 and 20 μM, 24 hrs, FIG. 6
Method: B16F10 melanoma cells were incubated in a DMEM medium including 10% fetal bovine serum and then added in a 6-well plate with 2.5×10^5 cell/mL (the final volume of 3 mL). After being incubated for 24 hrs, the medium was removed and fucosterol which was dissolved in the DMEM medium including 200 nM α-MSH was treated at 5 and 20 μM of concentrations, respectively. The cells after 24 hrs were lysed with a NP40 buffer solution including proteinase inhibitor cocktail and the protein amount extracted from the cells was quantified by using a Bradford reagent. The quantified protein was boiled for 5 min and isolated by electrophoresis with 10% SDS-PAGE to transfer the isolated proteins to a nitrocellular membrane. A primary antibody of […] and […] was diluted in 2.5% bovine serum albumin at a ratio of 1:1000 and reacted with the protein transferred to the nitrocellular membrane for 20 hrs at room temperature. The primary antibody was reacted and then the nitrocellular membrane was washed three times by using the TBST for 10 min. […] As the measured result, the protein expression of […] and […] was verified and it was shown that the loading amount of the protein was constant by α-tubulin.

transglutaminase = assay: Transglutaminase mRNA expression (RT-PCR) in HaCaT human keratinocytes; conditions: HaCaT cells, fucosterol 5, 10, 20 μM, 24 hrs, FIG. 9
Method: HaCaT human keratinocytes were incubated in a Dulbecco's Modified Eagle's Media (DMEM) medium including 10% fetal bovine serum and then put in a 6-well plate with 2×10^5 cell/ml (the final volume of 3 ml). After being incubated for 24 hrs, the medium was removed and fucosterol which was dissolved in the DMEM medium was treated at 5, 10, and 20 μM concentrations, respectively. After 24 hrs, the total RNA was collected by using a TRIzol reagent (Invitrogen, Carlsbad, Calif., USA) and reverse-transcribed and then a reverse transcription-polymerase chain reaction (RT-PCR) analysis was performed below. First, for cDNA synthesis, the RNA was reverse-transcribed by reverse transcriptase. The RT-PCR was performed by specific primers below and the result was illustrated in FIG. 9.

**Q.** How did the “inhibitory effect on tyrosinase activity” value (tyrosinase [1]) turn out when `C/C=C(\CC[C@@H](C)[C@H]1CC[C@H]2[C@@H]3CC=C4C[C@@H](O)CC[C@]4(C)[C@H]3CC[C@]12C)C(C)C` [fucosterol] was run?
**A.** The value was “very excellent inhibitory effect”.

**Q.** And the “protein expression of tyrosinase” value (tyrosinase [2])?
**A.** Its value is “reduced”.

**Q.** What about the “protein expression of TRP-1” value [3] of the same compound?
**A.** Its value is “reduced”.

**Q.** And the “mRNA expression of transglutaminase” value (transglutaminase)?
**A.** The value was “increased”.
